From US9416126B2, “Compounds inhibiting leucine-rich repeat kinase enzyme activity” (Merck Sharp & Dohme Corp., priority 2013, dated 2016)

Molecular target: LRRK2(G2019S mutation, GST-LRRK2(amino acids 970-2527)) (Homo sapiens (Human), UniProt Q5S007, G2019S)
Assay: LRRK2 Km ATP LanthaScreen Assay
Type: biochemical
In short: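 TR-FRET: GST-LRRK2 970-2527 G2019S (2.5 nM solution) preincubated 30 min with compound (98 μM top, 1:2.15 dilutions), then 800 nM fluorescein-LRRKtide and 184 μM ATP solution added for 60 min at room temperature in Tris pH 8.5 buffer. Stopped with EDTA and Tb anti-phospho-LRRKtide antibody; IC50 is a mean of several tests.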

[1] = Km ATP (184 μM ATP solution), G2019S LRRK2, mean IC50

Sequence of LRRK2(G2019S mutation, GST-LRRK2(amino acids 970-2527)) (Q5S007 970-2527 G2019S): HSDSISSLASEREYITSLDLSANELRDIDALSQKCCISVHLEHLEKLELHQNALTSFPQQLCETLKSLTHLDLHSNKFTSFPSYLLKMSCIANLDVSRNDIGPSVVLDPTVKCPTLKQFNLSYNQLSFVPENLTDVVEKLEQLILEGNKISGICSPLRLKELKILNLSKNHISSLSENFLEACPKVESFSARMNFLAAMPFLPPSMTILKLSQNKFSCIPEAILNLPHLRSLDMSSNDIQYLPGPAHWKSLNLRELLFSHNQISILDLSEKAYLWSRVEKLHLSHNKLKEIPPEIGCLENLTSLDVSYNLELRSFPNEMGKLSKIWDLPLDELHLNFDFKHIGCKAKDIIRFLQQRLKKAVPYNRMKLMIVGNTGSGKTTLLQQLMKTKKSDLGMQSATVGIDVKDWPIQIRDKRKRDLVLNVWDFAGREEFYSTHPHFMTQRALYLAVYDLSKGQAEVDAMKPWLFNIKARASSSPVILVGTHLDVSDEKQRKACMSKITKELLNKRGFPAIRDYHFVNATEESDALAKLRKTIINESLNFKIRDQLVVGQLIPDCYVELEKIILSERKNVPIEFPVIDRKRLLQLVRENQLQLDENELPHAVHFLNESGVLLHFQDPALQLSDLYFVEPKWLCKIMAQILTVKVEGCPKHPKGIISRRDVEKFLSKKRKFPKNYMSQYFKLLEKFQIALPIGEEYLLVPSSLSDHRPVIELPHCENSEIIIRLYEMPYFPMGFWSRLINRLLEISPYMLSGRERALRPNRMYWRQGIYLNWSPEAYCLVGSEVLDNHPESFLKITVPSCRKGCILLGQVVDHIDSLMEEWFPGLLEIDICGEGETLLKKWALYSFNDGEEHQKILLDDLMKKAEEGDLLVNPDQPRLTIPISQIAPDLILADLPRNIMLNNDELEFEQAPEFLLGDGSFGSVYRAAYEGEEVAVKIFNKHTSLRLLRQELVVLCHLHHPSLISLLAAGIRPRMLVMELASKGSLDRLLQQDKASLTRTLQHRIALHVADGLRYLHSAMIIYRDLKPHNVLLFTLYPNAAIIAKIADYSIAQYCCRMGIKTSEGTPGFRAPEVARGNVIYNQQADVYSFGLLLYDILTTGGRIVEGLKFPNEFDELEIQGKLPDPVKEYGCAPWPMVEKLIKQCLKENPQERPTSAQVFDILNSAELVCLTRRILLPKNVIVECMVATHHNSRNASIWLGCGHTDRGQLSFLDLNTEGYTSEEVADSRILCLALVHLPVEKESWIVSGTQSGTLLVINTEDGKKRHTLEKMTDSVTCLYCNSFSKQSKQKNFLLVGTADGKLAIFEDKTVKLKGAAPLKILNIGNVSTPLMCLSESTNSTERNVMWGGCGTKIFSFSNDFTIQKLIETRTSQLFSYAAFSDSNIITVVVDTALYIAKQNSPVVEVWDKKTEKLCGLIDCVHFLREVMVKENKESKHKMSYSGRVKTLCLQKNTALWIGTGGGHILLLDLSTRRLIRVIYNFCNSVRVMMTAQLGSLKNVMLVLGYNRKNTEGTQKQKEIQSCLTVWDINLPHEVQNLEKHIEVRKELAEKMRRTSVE

| Structure (SMILES) | IC50 [1] [nM] | IC50 (Examples N1-N25) [nM] | also measured |
| --- | --- | --- | --- |
| Cn1cc(-c2cc3c(-c4cc(N5CCc6nccnc6C5)ncn4)n[nH]c3cc2F)cn1 [Example L26] | 11.1 |  |  |
| CO[C@@H]1CCN(c2cc(-c3n[nH]c4ccc(-c5cnn(C)c5)cc34)ncn2)C1 [Example M1] | 4 |  |  |
| Cn1cc(-c2ccc3[nH]nc(-c4cc(N5CCCC(F)(F)C5)ncn4)c3c2)cn1 [Example M2] | 2.2 |  |  |
| Cn1cc(-c2ccc3[nH]nc(-c4cc(N5CCn6ncnc6C5)ncn4)c3c2)cn1 [Example M3] | 8.5 |  |  |
| Cn1cc(-c2ccc3[nH]nc(-c4cc(N5CC[C@@H](CF)C5)ncn4)c3c2)cn1 [Example M4] | 2.3 |  |  |
| Cn1cc(-c2ccc3[nH]nc(-c4cc(N5CC[C@H](CO)C5)ncn4)c3c2)cn1 [Example M5] | 2.5 |  |  |
| CC(O)C1CCN(c2cc(-c3n[nH]c4ccc(-c5cnn(C)c5)cc34)ncn2)C1 (stereo not shown) [Example M6] | 2.3 |  |  |
| Cn1cc(-c2ccc3[nH]nc(-c4cc(N5CC[C@@H](CO)C5)ncn4)c3c2)cn1 [Example M7] | 2.9 |  |  |
| Cn1cc(-c2ccc3[nH]nc(-c4cc(N5CCCC(C)(O)C5)ncn4)c3c2)cn1 (stereo not shown) [Example M8] | 7.9 |  |  |
| C[C@@H]1CN(c2cc(-c3n[nH]c4ccc(-c5cnn(C)c5)cc34)ncn2)CCO1 [Example M9] | 1.9 |  |  |
| CO[C@H]1CCN(c2cc(-c3n[nH]c4ccc(-c5cnn(C)c5)cc34)ncn2)C1 [Example M10] | 2.6 |  |  |
| Cn1cc(-c2ccc3[nH]nc(-c4cc(N5CC[S+]([O-])CC5)ncn4)c3c2)cn1 [Example M11] | 26.8 |  |  |
| C[C@H]1CN(c2cc(-c3n[nH]c4ccc(-c5cnn(C)c5)cc34)ncn2)CCO1 [Example M12] | 2.2 |  |  |
| Cn1cc(-c2ccc3[nH]nc(-c4cc(N5C[C@H](F)[C@@H](F)C5)ncn4)c3c2)cn1 [Example M13] | 3.8 |  |  |
| Cc1nc2c(o1)CCN(c1cc(-c3n[nH]c4ccc(-c5cnn(C)c5)cc34)ncn1)C2 [Example M14] | 2.8 |  |  |
| Cn1cc(-c2ccc3[nH]nc(-c4cc(N5CCN6C(=O)OCC6C5)ncn4)c3c2)cn1 (stereo not shown) [Example M15] | 6.3 |  |  |
| Cn1cc(-c2ccc3[nH]nc(-c4cc(N5CCCC6(CCO6)C5)ncn4)c3c2)cn1 (stereo not shown) [Example M16] | 10.9 |  |  |
| CN(C)[C@H]1CN(c2cc(-c3n[nH]c4ccc(-c5cnn(C)c5)cc34)ncn2)C[C@@H]1O [Example M17] | 13.5 |  |  |
| Cn1cc(-c2ccc3[nH]nc(-c4cc(N5CCS(=O)(=O)CC5)ncn4)c3c2)cn1 [Example M18] | 22.4 |  |  |
| CN(C)[C@H]1CCN(c2cc(-c3n[nH]c4ccc(-c5cnn(C)c5)cc34)ncn2)C1 [Example M19] | 4.6 |  |  |
| Cn1cc(-c2ccc3[nH]nc(-c4cc(N5CCOC(C)(C)C5)ncn4)c3c2)cn1 [Example M20] | 8.9 |  |  |
| Cn1cc(-c2ccc3[nH]nc(-c4cc(N5CCC(F)(F)CC5)ncn4)c3c2)cn1 [Example M21] | 4.6 |  |  |
| Cn1cc(-c2ccc3[nH]nc(-c4cc(N5CCC(n6cccn6)C5)ncn4)c3c2)cn1 (stereo not shown) [Example M22] | 3.6 |  |  |
| CO[C@H]1CN(c2cc(-c3n[nH]c4ccc(-c5cnn(C)c5)cc34)ncn2)C[C@@H]1O [Example M23] | 6 |  |  |
| Cn1cc(-c2ccc3[nH]nc(-c4cc(N5CCC(F)(CO)CC5)ncn4)c3c2)cn1 [Example M24] | 2.9 |  |  |
| Cn1cc(-c2ccc3[nH]nc(-c4cc(N5CCN(CCCO)CC5)ncn4)c3c2)cn1 [Example M25] | 3 |  |  |

| Structure (SMILES) | IC50 [1] [nM] | IC50 (Examples N1-N25) [nM] | also measured |
| --- | --- | --- | --- |
| Cn1cc(-c2ccc3[nH]nc(-c4cc(N5CCC(F)(F)C5)ncn4)c3c2)cn1 [Example M26] | 3.7 |  |  |
| Cn1cc(-c2ccc3[nH]nc(-c4cc(N5CCC(F)(C#N)CC5)ncn4)c3c2)cn1 [Example M27] | 3 |  |  |
| Cn1cc(-c2ccc3[nH]nc(-c4cc(N5CCc6nccnc6C5)ncn4)c3c2)cn1 [Example M28] | 2.7 |  |  |
| CC(C)Oc1cc2c(-c3cc(N4CCn5ncnc5C4)ncn3)n[nH]c2cc1F [Example N1] |  | 7.1 |  |
| COCC(=O)N1CCN(c2cc(-c3n[nH]c4cc(F)c(OC(C)C)cc34)ncn2)CC1 [Example N2] |  | 5.6 |  |
| CC(C)Oc1cc2c(-c3cc(N4CCOC(C(F)(F)F)C4)ncn3)n[nH]c2cc1F (stereo not shown) [Example N3] |  | 26.6 |  |
| CC(C)Oc1cc2c(-c3cc(N4CCN(C5CCS(=O)(=O)C5)CC4)ncn3)n[nH]c2cc1F (stereo not shown) [Example N4] |  | 2.5 |  |
| CC(C)Oc1cc2c(-c3cc(N4CCn5nc(C(F)(F)F)nc5C4C)ncn3)n[nH]c2cc1F (stereo not shown) [Example N5] |  | 176 |  |
| CC(C)Oc1cc2c(-c3cc(N4CC[C@H](CO)C4)ncn3)n[nH]c2cc1F [Example N6] |  | 10.2 |  |
| CC(C)Oc1cc2c(-c3cc(N4CC[C@@H](CO)C4)ncn3)n[nH]c2cc1F [Example N7] |  | 2.9 |  |
| CC(C)Oc1cc2c(-c3cc(N4CCC(F)(F)C4)ncn3)n[nH]c2cc1F [Example N8] |  | 6.1 |  |
| CC(C)Oc1cc2c(-c3cc(N4CC[S+]([O-])CC4)ncn3)n[nH]c2cc1F [Example N9] |  | 6.1 |  |
| CC(C)Oc1cc2c(-c3cc(N4CCc5oncc5C4)ncn3)n[nH]c2cc1F [Example N10] |  | 9.8 |  |
| CC(C)Oc1cc2c(-c3cc(N4C5CCC4COC5)ncn3)n[nH]c2cc1F [Example N11] |  | 18.2 |  |
| COCC1CN(c2cc(-c3n[nH]c4cc(F)c(OC(C)C)cc34)ncn2)CCO1 (stereo not shown) [Example N12] |  | 2.9 |  |
| CC(C)Oc1cc2c(-c3cc(N4CCC(n5cccn5)C4)ncn3)n[nH]c2cc1F (stereo not shown) [Example N13] |  | 6.1 |  |
| Cc1nc2c(o1)CCN(c1cc(-c3n[nH]c4cc(F)c(OC(C)C)cc34)ncn1)C2 [Example N14] |  | 6.4 |  |
| CC(C)Oc1cc2c(-c3cc(N4CCOC(C)(C)C4)ncn3)n[nH]c2cc1F [Example N15] |  | 6.2 |  |
| CC(C)Oc1cc2c(-c3cc(N4CCC(F)(C#N)CC4)ncn3)n[nH]c2cc1F [Example N16] |  | 17.7 |  |
| CO[C@H]1CN(c2cc(-c3n[nH]c4cc(F)c(OC(C)C)cc34)ncn2)C[C@@H]1O [Example N17] |  | 7.7 |  |
| CC(C)Oc1cc2c(-c3cc(N4C[C@H](O)[C@@H](N(C)C)C4)ncn3)n[nH]c2cc1F [Example N18] |  | 7.9 |  |
| CC(C)Oc1cc2c(-c3cc(N4CCS(=O)(=O)CC4)ncn3)n[nH]c2cc1F [Example N19] |  | 24 |  |
| CC(C)Oc1cc2c(-c3cc(N4CCC(F)(CO)CC4)ncn3)n[nH]c2cc1F [Example N20] |  | 2.3 |  |
| CCOC(=O)N1CCN(c2cc(-c3n[nH]c4cc(F)c(OC(C)C)cc34)ncn2)CC1 [Example N21] |  | 6.1 |  |
| CC(C)Oc1cc2c(-c3cc(N4CC[C@H](N(C)C)C4)ncn3)n[nH]c2cc1F [Example N22] |  | 7 |  |
| CC(C)Oc1cc2c(-c3cc(N4CCN(CCCO)CC4)ncn3)n[nH]c2cc1F [Example N23] |  | 3.1 |  |

| Structure (SMILES) | IC50 [1] [nM] | IC50 (Examples N1-N25) [nM] | also measured |
| --- | --- | --- | --- |
| CC(C)Oc1cc2c(-c3cc(N4[C@H](C)COC[C@H]4C)ncn3)n[nH]c2cc1F [Example N24] |  | 62.1 |  |
| CC(C)Oc1cc2c(-c3cc(N4[C@H](C)COC[C@@H]4C)ncn3)n[nH]c2cc1F [Example N25] |  | 5.4 |  |
| COC[C@H](C)Oc1ccc2[nH]nc(-c3cc(N4CCn5ncnc5C4)ncn3)c2c1 [Example O1] |  |  | IC50 (Examples O1-O23): 20.2 nM |
| COC[C@H](C)Oc1ccc2[nH]nc(-c3cc(N4CCOC[C@H]4C)ncn3)c2c1 [Example O2] |  |  | IC50 (Examples O1-O23): 20.2 nM |
| COC[C@H](C)Oc1ccc2[nH]nc(-c3cc(N4CC[C@@H](CF)C4)ncn3)c2c1 [Example O3] |  |  | IC50 (Examples O1-O23): 2.7 nM |
| COC[C@H](C)Oc1ccc2[nH]nc(-c3cc(N4CCCC(F)(F)C4)ncn3)c2c1 [Example O4] |  |  | IC50 (Examples O1-O23): 2.8 nM |
| COC[C@H](C)Oc1ccc2[nH]nc(-c3cc(N4CCOC(C(F)(F)F)C4)ncn3)c2c1 (stereo partly shown) [Example O5] |  |  | IC50 (Examples O1-O23): 8.6 nM |
| COC[C@H](C)Oc1ccc2[nH]nc(-c3cc(N4CC[C@H](CO)C4)ncn3)c2c1 [Example O6] |  |  | IC50 (Examples O1-O23): 6 nM |
| COC[C@H](C)Oc1ccc2[nH]nc(-c3cc(N4CC[C@@H](CO)C4)ncn3)c2c1 [Example O7] |  |  | IC50 (Examples O1-O23): 3.6 nM |
| COC[C@H](C)Oc1ccc2[nH]nc(-c3cc(N4CCC(F)(F)C4)ncn3)c2c1 [Example O8] |  |  | IC50 (Examples O1-O23): 12.6 nM |
| COC[C@H](C)Oc1ccc2[nH]nc(-c3cc(N4CCN(C)C(=O)C4)ncn3)c2c1 [Example O9] |  |  | IC50 (Examples O1-O23): 10.9 nM |
| COC[C@H](C)Oc1ccc2[nH]nc(-c3cc(N4CC(OC)C4)ncn3)c2c1 [Example O10] |  |  | IC50 (Examples O1-O23): 5.6 nM |
| COC[C@H](C)Oc1ccc2[nH]nc(-c3cc(N4CCN(C5CC5)CC4)ncn3)c2c1 [Example O11] |  |  | IC50 (Examples O1-O23): 4.1 nM |
| COC[C@H](C)Oc1ccc2[nH]nc(-c3cc(N4C[C@H](F)[C@@H](F)C4)ncn3)c2c1 [Example O12] |  |  | IC50 (Examples O1-O23): 7.9 nM |
| COCC1CN(c2cc(-c3n[nH]c4ccc(O[C@@H](C)COC)cc34)ncn2)CCO1 (stereo partly shown) [Example O13] |  |  | IC50 (Examples O1-O23): 3.6 nM |
| COC[C@H](C)Oc1ccc2[nH]nc(-c3cc(N4CC(F)(F)C4)ncn3)c2c1 [Example O14] |  |  | IC50 (Examples O1-O23): 7.6 nM |
| COC[C@H](C)Oc1ccc2[nH]nc(-c3cc(N4[C@H](C)COC[C@@H]4C)ncn3)c2c1 [Example O15] |  |  | IC50 (Examples O1-O23): 7.4 nM |
| COC[C@H](C)Oc1ccc2[nH]nc(-c3cc(N4CCOC[C@@H]4C)ncn3)c2c1 [Example O16] |  |  | IC50 (Examples O1-O23): 6 nM |
| COC[C@H](C)Oc1ccc2[nH]nc(-c3cc(N4CCc5oc(C)nc5C4)ncn3)c2c1 [Example O17] |  |  | IC50 (Examples O1-O23): 8.4 nM |
| COC[C@H](C)Oc1ccc2[nH]nc(-c3cc(N4CCOC(C)(C)C4)ncn3)c2c1 [Example O18] |  |  | IC50 (Examples O1-O23): 5.3 nM |
| COC[C@H](C)Oc1ccc2[nH]nc(-c3cc(N4CCC(F)(F)CC4)ncn3)c2c1 [Example O19] |  |  | IC50 (Examples O1-O23): 8 nM |
| COC[C@H](C)Oc1ccc2[nH]nc(-c3cc(N4CCN5C(=O)OCC5C4)ncn3)c2c1 (stereo partly shown) [Example O20] |  |  | IC50 (Examples O1-O23): 8.8 nM |
| COC[C@H](C)Oc1ccc2[nH]nc(-c3cc(N4C[C@H](OC)[C@@H](O)C4)ncn3)c2c1 [Example O21] |  |  | IC50 (Examples O1-O23): 19.8 nM |
| COC[C@H](C)Oc1ccc2[nH]nc(-c3cc(N4C[C@H](O)[C@@H](N(C)C)C4)ncn3)c2c1 [Example O22] |  |  | IC50 (Examples O1-O23): 6.6 nM |
